In patent US20030166645A1, “Novel nitrofuran-containing heterocyclic compounds and uses thereof” (priority 2001, published 2003):
≈ marks a conversion by molar mass, not a printed value.

How the values were obtained:
Assay in all cases: Microdilution antimicrobial susceptibility test (MIC)
Format in all cases: cell-based
[1] = system: P aeruginosa; details: broth microdilution, 18-24 h, MIC = 90% inhibition of growth
[2] = system: S pneumoniae; details: broth microdilution, 18-24 h, CO2-enriched atmosphere, MIC = 90% inhibition of growth; for MIC: read-out: MIC S pneumoniae MIC6
[3] = system: M. catarrhalis; details: broth microdilution, 18-24 h, MIC = 90% inhibition of growth; for MIC: Moraxella catarrhalis, read-out: MIC M. catarrhalis MIC2
[4] = system: H influenzae; details: broth microdilution, 18-24 h, MIC = 90% inhibition of growth; for MIC: read-out: MIC H influenzae MIC4
[5] = system: E faecalis; details: broth microdilution, 18-24 h, MIC = 90% inhibition of growth; for MIC: read-out: MIC E faecalis MIC2
[6] = system: E coli (ImpA); details: broth microdilution, 18-24 h, MIC = 90% inhibition of growth; for MIC: read-out: MIC E coli (ImpA) MIC9
Description: Microdilution Antimicrobial Susceptibility Test Assay
Stock solutions of tested compounds were prepared in N,N-dimethylformamide (DMF) at a concentration of 5 mg/mL. Working solutions of the tested compounds were then prepared from the stock solutions, in Mueller-Hinton broth (MHB) with a starting concentration of 64 μg/mL.
Bacterial inocula were prepared from overnight culture (i.e., one fresh colony from agar plate in 5 ml MHB; H. influenzae was grown in MHB with the addition of yeast extract, haematin, and NAD), centrifuged 2×5 min/3000 rpm (for S. pneumoniae and H. influenzae, 2×10 min/3000 rpm), and dispensed in 5 ml of fresh MHB each time, such that the bacterial suspension is diluted to obtain 100 colony forming units (cfu) in a microplate well (100 μl total volume).
Microplate wells were filled with two-fold dilutions of test compound (50 Al), starting with 64 μg/ml. Wells were then filled with 50 μl of bacterial inoculum (final volume: 100 μl/well). The plates were incubated at 37° C. for 18-24 hours (S. pneumoniae was grown in a CO2-enriched atmosphere).

[7] = system: S cerevisiae; details: broth microdilution, 18-24 h, MIC = 90% inhibition of growth; for MIC: read-out: MIC S cerevisiae MIC7
[8] = system: E coli; details: broth microdilution, 18-24 h, MIC = 90% inhibition of growth; for MIC: read-out: MIC E coli MIC2
[9] = system: S aureus; details: broth microdilution, 18-24 h, MIC = 90% inhibition of growth; for MIC: read-out: MIC S aureus MIC2

Row | SMILES | MIC ([1]; read-out: MIC P aeruginosa MIC2) [µg/mL] | MIC [2] [µg/mL] | MIC [3] [µg/mL] | MIC [4] [µg/mL] | MIC [5] [µg/mL] | MIC [6] [µg/mL] | MIC [7] [µg/mL] | MIC [8] [µg/mL] | MIC [9] [µg/mL] | MIC S pneumoniae MIC6 [2] [µg/mL] | MIC M. catarrhalis MIC2 [3] [µg/mL] | MIC H influenzae MIC4 [4] [µg/mL] | MIC E faecalis MIC2 [5] [µg/mL] | MIC E coli (ImpA) MIC9 [6] [µg/mL] | MIC S cerevisiae MIC7 [7] [µg/mL] | MIC E coli MIC2 [8] [µg/mL] | MIC S aureus MIC2 [9] [µg/mL] | MIC P aeruginosa MIC2 [1] [µg/mL]
1 | CNS(=O)(=O)c1nnc(-c2ccc([N+](=O)[O-])o2)n1C [Compound 106, 5-[2-(5-Nitro)furyl]-4-methyl-4H-1,2,4-triazole-3-methyl Sulfonamide] | > 64 | 64 (≈ 223 µM) | 2 (≈ 6.96 µM) | 32 (≈ 111 µM) | > 64 | 4 (≈ 13.9 µM) | 64 (≈ 223 µM) | 8 (≈ 27.8 µM) | > 64 |  |  |  |  |  |  |  |  | 
2 | Nn1c(S)nnc1-c1ccc([N+](=O)[O-])o1 [Compound 110] |  | 32 (≈ 141 µM) | 32 (≈ 141 µM) | 8 (≈ 35.2 µM) | > 128 |  | 64 (≈ 282 µM) | 16 (≈ 70.4 µM) | 32 (≈ 141 µM) |  |  |  |  |  |  |  |  | 
3 | Cn1c(SCCCO)nnc1-c1ccc([N+](=O)[O-])o1 [Compound 116, 5-[2-(5-Nitro)furyl]-4-methyl-4H-1,2,4-triazole-3-(3-hydroxypropyl)-thiol] |  | 8 (≈ 28.1 µM) | 0.5 (≈ 1.76 µM) | 16 (≈ 56.3 µM) | 8 (≈ 28.1 µM) | 1 (≈ 3.52 µM) | > 64 | 8 (≈ 28.1 µM) | 8 (≈ 28.1 µM) |  |  |  |  |  |  |  |  | 
4 | O=[N+]([O-])c1ccc(-c2nnc(S)[nH]2)o1 [Compound 117] |  | 2 (≈ 9.43 µM) | 2 (≈ 9.43 µM) | 8 (≈ 37.7 µM) | 32 (≈ 151 µM) | 16 (≈ 75.4 µM) | > 64 | > 64 | 64 (≈ 302 µM) |  |  |  |  |  |  |  |  | 
5 | O=[N+]([O-])c1ccc(-c2nnc(S)n2CCCN2CCOCC2)o1 [Compound 120] |  |  |  |  |  |  |  |  |  | 16 (≈ 47.1 µM) | 2 (≈ 5.89 µM) | 16 (≈ 47.1 µM) | 64 (≈ 189 µM) | 32 (≈ 94.3 µM) | 64 (≈ 189 µM) | >64 | 64 (≈ 189 µM) | 
6 | Cn1c(SCC#N)nnc1-c1ccc([N+](=O)[O-])o1 [Compound 121] |  |  |  |  |  |  |  |  |  | 16 (≈ 60.3 µM) | 1 (≈ 3.77 µM) | 16 (≈ 60.3 µM) | 64 (≈ 241 µM) | 2 (≈ 7.54 µM) | >64 | 8 (≈ 30.2 µM) | 16 (≈ 60.3 µM) | 
7 | Cn1c(-c2ccc([N+](=O)[O-])o2)nnc1S(=O)(=O)Nc1ccccc1 [Compound 123] |  |  |  |  |  |  |  |  |  | 8 (≈ 22.9 µM) | 1 (≈ 2.86 µM) | 16 (≈ 45.8 µM) | 64 (≈ 183 µM) | 16 (≈ 45.8 µM) | >64 | >64 | 64 (≈ 183 µM) | >64
8 | CSc1nnc(-c2ccc([N+](=O)[O-])o2)n1C [Compound 124] |  | 8 (≈ 33.3 µM) | 1 (≈ 4.16 µM) | 8 (≈ 33.3 µM) | 32 (≈ 133 µM) | 2 (≈ 8.32 µM) | 16 (≈ 66.6 µM) | 64 (≈ 266 µM) | 16 (≈ 66.6 µM) |  |  |  |  |  |  |  |  | 
9 | CCn1c(S)nnc1-c1ccc([N+](=O)[O-])o1 [Compound 126] |  | 16 (≈ 66.6 µM) | 4 (≈ 16.6 µM) | 32 (≈ 133 µM) | 64 (≈ 266 µM) |  | > 64 | > 64 | > 64 |  |  |  |  |  |  |  |  | 
10 | Cn1c(SCc2ccncc2)nnc1-c1ccc([N+](=O)[O-])o1 [Compound 129] |  |  |  |  |  |  |  |  |  | 16 (≈ 50.4 µM) | 0.5 (≈ 1.58 µM) | 16 (≈ 50.4 µM) | 64 (≈ 202 µM) | 4 (≈ 12.6 µM) | >64 | 64 (≈ 202 µM) | 16 (≈ 50.4 µM) | 
11 | C=CCn1c(S)nnc1-c1ccc([N+](=O)[O-])o1 [Compound 130] |  |  |  |  |  |  |  |  |  | 16 (≈ 63.4 µM) | 4 (≈ 15.9 µM) | 32 (≈ 127 µM) | 64 (≈ 254 µM) | 64 (≈ 254 µM) | >64 | >64 | >64 | 
12 | CCCCn1c(S)nnc1-c1ccc([N+](=O)[O-])o1 [Compound 133] |  |  |  |  |  |  |  |  |  | 64 (≈ 239 µM) | 32 (≈ 119 µM) | 32 (≈ 119 µM) | >64 | 64 (≈ 239 µM) | 64 (≈ 239 µM) | >64 | 64 (≈ 239 µM) | 
13 | O=[N+]([O-])c1ccc(-c2nnc(S)n2-c2ccccc2)o1 [Compound 134] |  |  |  |  |  |  |  |  |  | 8 (≈ 27.8 µM) | 0.25 (≈ 0.867 µM) | 8 (≈ 27.8 µM) | 64 (≈ 222 µM) | 2 (≈ 6.94 µM) | >64 |  | 2 (≈ 6.94 µM) | 
14 | O=[N+]([O-])c1ccc(-c2nnc(S)n2Cc2ccccc2)o1 [Compound 135] |  |  |  |  |  |  |  |  |  | 8 (≈ 26.5 µM) | 1 (≈ 3.31 µM) | 64 (≈ 212 µM) | 16 (≈ 52.9 µM) | 32 (≈ 106 µM) | >64 | >64 | 32 (≈ 106 µM) | 
15 | O=[N+]([O-])c1ccc(-c2nnc(S)n2-c2ccc(F)cc2)o1 [Compound 136] |  |  |  |  |  |  |  |  |  | 8 (≈ 26.1 µM) | 4 (≈ 13.1 µM) | 16 (≈ 52.2 µM) | 64 (≈ 209 µM) | 16 (≈ 52.2 µM) | 64 (≈ 209 µM) | >64 | 32 (≈ 104 µM) | 
16 | O=[N+]([O-])c1ccc(-c2nnc(S)n2C2CCCCC2)o1 [Compound 137] |  |  |  |  |  |  |  |  |  | 8 (≈ 27.2 µM) | 1 (≈ 3.4 µM) | 16 (≈ 54.4 µM) | 32 (≈ 109 µM) | 32 (≈ 109 µM) | >64 | >64 | >64 | 
17 | O=[N+]([O-])c1ccc(-c2nnc(S)n2-c2ccc(I)cc2)o1 [Compound 138] |  |  |  |  |  |  |  |  |  |  | <0.12 | 8 (≈ 19.3 µM) | 1 (≈ 2.41 µM) | 0.25 (≈ 0.604 µM) | 16 (≈ 38.6 µM) | >64 | 0.5 (≈ 1.21 µM) | 
18 | O=[N+]([O-])c1ccc(-c2nnc(S)n2-c2ccc(Cl)cc2)o1 [Compound 139, 4-(4-Chlorophenyl)-5-(5-nitrofuranyl)-4H-1,2,4-triazol-3-thiol] |  | 2 (≈ 6.2 µM) | < 0.12 | 2 (≈ 6.2 µM) | 2 (≈ 6.2 µM) | < 0.12 | 32 (≈ 99.2 µM) | > 64 | 0.25 (≈ 0.775 µM) |  |  |  |  |  |  |  |  | 
19 | O=[N+]([O-])c1ccc(-c2nnc(S)n2-c2ccc(Br)cc2)o1 [Compound 141] |  |  |  |  |  |  |  |  |  | 2 (≈ 5.45 µM) | 0.125 (≈ 0.34 µM) | 8 (≈ 21.8 µM) | 2 (≈ 5.45 µM) | <0.12 | 64 (≈ 174 µM) | >64 | 0.25 (≈ 0.681 µM) | 
20 | O=[N+]([O-])c1ccc(-c2nnc(S)n2-c2ccc(Br)c(Cl)c2)o1 [Compound 142] |  |  |  |  |  |  |  |  |  | 2 (≈ 4.98 µM) | <0.12 | 8 (≈ 19.9 µM) | 1 (≈ 2.49 µM) | <0.12 | 64 (≈ 159 µM) | >64 | <0.12 | 
